Data on 15 compounds can be found in PMC8862572 (Bioorganic & medicinal chemistry, 2020).

Entries after “also recorded” stand apart in the source; their conditions may differ.

Usually inhibition stands for how much of the control response was suppressed.

The target of the first assay is T1, Recombinant human SphK1 (Homo sapiens, UniProt Q9NYA1).
T1 sequence (Q9NYA1 whole entry): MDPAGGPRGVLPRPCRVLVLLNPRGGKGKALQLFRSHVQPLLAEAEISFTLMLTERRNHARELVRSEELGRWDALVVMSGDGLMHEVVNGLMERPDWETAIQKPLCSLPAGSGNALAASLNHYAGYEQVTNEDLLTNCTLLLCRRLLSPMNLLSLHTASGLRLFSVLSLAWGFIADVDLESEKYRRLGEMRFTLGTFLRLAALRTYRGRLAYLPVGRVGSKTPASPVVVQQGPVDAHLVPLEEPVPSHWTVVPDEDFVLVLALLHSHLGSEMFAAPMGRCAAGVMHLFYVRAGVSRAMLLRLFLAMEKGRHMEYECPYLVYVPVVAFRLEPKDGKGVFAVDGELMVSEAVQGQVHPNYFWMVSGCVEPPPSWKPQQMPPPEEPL
Experiment: not given
The settings on record: compound 1.0 μM.
For `CC(C)(C)c1cccc(Oc2ccc(CN3CCC[C@@H]3CO)cc2)c1.Cl` [18b, (R)-(1-(4-(3-(tert-butyl)phenoxy)benzyl)pyrrolidin-2-yl)methanol], the “SphK1 inhibition, in words” value was “minimal enzyme inhibition”.
With `Cl.OC[C@H]1CCCN1Cc1ccc(OCc2ccc(C(F)(F)F)cc2)cc1` [12e, (R)-(1-(4-((4-(trifluoromethyl)benzyl)oxy)benzyl)pyrrolidin-2-yl)methanol], the “SphK1 inhibition, in words” value is given as “weak SphK inhibition”.
Consider `Cl.OC[C@H]1CCCN1Cc1ccc(Oc2ccccc2)cc1` [18a, (R)-(1-(4-phenoxybenzyl)pyrrolidin-2-yl)methanol], for which the “SphK1 inhibition, in words” value is “poor SphK1 and 2 inhibition”.
For `CCCCCCCOc1ccc(CN2CCC[C@@H]2CO)cc1.Cl` [12a, (R)-(1-(4-(heptyloxy)benzyl)pyrrolidin-2-yl)methanol], the “SphK1 inhibition, in words” value is “poor SphK1 and 2 inhibition”.
In the case of `Cl.OC[C@H]1CCCN1Cc1ccc(Oc2cccc(-c3ccccc3)c2)cc1` [18d, (R)-(1-(4-([1,1′-biphenyl]-3-yloxy)benzyl)pyrrolidin-2-yl)methanol], the “SphK1 inhibition, in words” value is reported as “minimal enzyme inhibition”.

Another assay deals with U937 cells. The experiment in a line: U937 cell culture assay, S1P levels by LC-MS/MS. To be noted: 0.1 μM to 1.0 μM, 2.0 h incubation.
For `CCCCCCCCCCCCc1ccc(CN2CCC[C@@H]2CO)cc1.Cl` [22d, (R)-(1-(4-dodecylbenzyl)pyrrolidin-2-yl)methanol], the “S1P levels in U937 cells” value is “decreased S1P levels; also recorded: concentration-dependent reduction of S1P levels”.

For another assay, the target named is T1, Recombinant human SphK1. The experiment in a line: biochemical. To be noted: read-out: % SphK1 Inhibition.
As for `CCCCc1ccc(CCc2ccc(CN3CCC[C@@H]3CO)cc2)cc1` [29b, (R)-(1-(4-(4-butylphenethyl)benzyl)pyrrolidin-2-yl)methanol], the inhibition at 1 µM came out at 31 ± 4%.
In the case of `OC[C@H]1CCCN1Cc1ccc(/C=C/c2cccc(C(F)(F)F)c2)cc1` [25b, (R,E)-(1-(4-(3-(trifluoromethyl)styryl)benzyl)pyrrolidin-2-yl) methanol], the inhibition at 1 µM worked out at 45 ± 1%.
In the case of `COc1ccc(CCc2ccc(CN3CCC[C@@H]3CO)cc2)cc1` [22g, (R)-(1-(4-(4-methoxyphenethyl)benzyl)pyrrolidin-2-yl)methanol], the inhibition at 1 µM stood at 8 ± 7%.
With `CCCCCCCCCCCc1ccc(CN2CCC[C@@H]2COC(C)=O)cc1` [22h, (R)-(1-(4-undecylbenzyl)pyrrolidin-2-yl)methyl acetate], the inhibition at 1 µM turned out to be 47 ± 6%.
With `Cc1cc(/C=C/c2ccc(C(C)(C)C)cc2)ccc1CN1CCC[C@@H]1CO` [25a, (R,E)-(1-(4-(4-(tert-butyl)styryl)-2-methylbenzyl)pyrrolidin-2-yl)methanol], the inhibition at 1 µM came to 23 ± 3%.
As for `CCCCCc1ccc(CCc2ccc(CN3CCC[C@@H]3CO)cc2)cc1` [29c, (R)-(1-(4-(4-pentylphenethyl)benzyl)pyrrolidin-2-yl)methanol], the inhibition at 1 µM stood at 36 ± 3%.
For `CCCc1ccc(CCc2ccc(CN3CCC[C@@H]3CO)cc2)cc1` [29a, (R)-(1-(4-(4-propylphenethyl)benzyl)pyrrolidin-2-yl)methanol], the inhibition at 1 µM came to 29 ± 8%.
As to `Cc1ccc(CCc2ccc(CN3CCC[C@@H]3CO)cc2)cc1` [22f, (R)-(1-(4-(4-methylphenethyl)benzyl)pyrrolidin-2-yl)methanol], the inhibition at 1 µM is 4 ± 4%.

Another assay concerns the target T2, Recombinant human SphK2 (Homo sapiens, UniProt Q9NRA0).
T2 sequence (Q9NRA0 1-654): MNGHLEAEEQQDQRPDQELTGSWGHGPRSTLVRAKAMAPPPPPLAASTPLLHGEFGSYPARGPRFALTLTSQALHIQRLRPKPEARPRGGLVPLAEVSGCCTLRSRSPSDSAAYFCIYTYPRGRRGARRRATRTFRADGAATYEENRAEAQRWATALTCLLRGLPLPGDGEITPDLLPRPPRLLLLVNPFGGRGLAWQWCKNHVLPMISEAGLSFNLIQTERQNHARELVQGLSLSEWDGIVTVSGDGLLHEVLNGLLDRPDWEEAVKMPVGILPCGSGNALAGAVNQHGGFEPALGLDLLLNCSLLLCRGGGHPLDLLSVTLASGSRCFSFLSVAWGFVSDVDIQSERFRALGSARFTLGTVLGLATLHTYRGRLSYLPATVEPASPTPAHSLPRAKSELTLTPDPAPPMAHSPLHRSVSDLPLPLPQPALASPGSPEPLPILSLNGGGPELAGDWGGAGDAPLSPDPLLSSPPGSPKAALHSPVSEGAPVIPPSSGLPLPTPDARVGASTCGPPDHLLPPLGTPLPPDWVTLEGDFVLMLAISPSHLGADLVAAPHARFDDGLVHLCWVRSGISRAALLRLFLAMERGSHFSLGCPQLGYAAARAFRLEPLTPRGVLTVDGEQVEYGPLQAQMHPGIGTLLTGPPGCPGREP
The experiment in a line: Recombinant hSphK2 cell lysate assay. The class given is biochemical. To be noted: compound 0.3 μM.
Regarding `CCCCCCCCCCCCc1ccc(CN2CCC[C@@H]2CO)cc1.Cl` [22d, (R)-(1-(4-dodecylbenzyl)pyrrolidin-2-yl)methanol], the “SphK2 inhibition, in words” value is “strong inhibitory activity”.
Consider `CCCCCCCCCCc1ccc(CN2CCC[C@@H]2CO)cc1.Cl` [22b, (R)-(1-(4-decylbenzyl)pyrrolidin-2-yl)methanol], for which the “SphK2 inhibition, in words” value was “strong inhibitory activity”.
On to `CC(C)(C)c1cccc(Oc2ccc(CN3CCC[C@@H]3CO)cc2)c1.Cl` [18b, (R)-(1-(4-(3-(tert-butyl)phenoxy)benzyl)pyrrolidin-2-yl)methanol], for which the “SphK2 inhibition, in words” value is “minimal enzyme inhibition”.
For the compound `Cl.OC[C@H]1CCCN1Cc1ccc(OCc2ccc(C(F)(F)F)cc2)cc1` [12e, (R)-(1-(4-((4-(trifluoromethyl)benzyl)oxy)benzyl)pyrrolidin-2-yl)methanol], the “SphK2 inhibition, in words” value is “weak SphK inhibition”.
As for `Cl.OC[C@H]1CCCN1Cc1ccc(Oc2ccccc2)cc1` [18a, (R)-(1-(4-phenoxybenzyl)pyrrolidin-2-yl)methanol], the “SphK2 inhibition, in words” value was “poor SphK1 and 2 inhibition”.
`CCCCCCCOc1ccc(CN2CCC[C@@H]2CO)cc1.Cl` [12a, (R)-(1-(4-(heptyloxy)benzyl)pyrrolidin-2-yl)methanol]: the “SphK2 inhibition, in words” value is “poor SphK1 and 2 inhibition”.
Take `Cl.OC[C@H]1CCCN1Cc1ccc(Oc2cccc(-c3ccccc3)c2)cc1` [18d, (R)-(1-(4-([1,1′-biphenyl]-3-yloxy)benzyl)pyrrolidin-2-yl)methanol]: the “SphK2 inhibition, in words” value is “minimal enzyme inhibition”.

The assay is the same for the next values; noted with them: read-out: % SphK2 Inhibition.
Regarding `OC[C@H]1CCCN1Cc1ccc(/C=C/c2cccc(C(F)(F)F)c2)cc1` [25b, (R,E)-(1-(4-(3-(trifluoromethyl)styryl)benzyl)pyrrolidin-2-yl) methanol], the inhibition at 0.3 µM was determined as 13 ± 5%.
Still for that read-out and setting: for `COc1ccc(CCc2ccc(CN3CCC[C@@H]3CO)cc2)cc1` [22g, (R)-(1-(4-(4-methoxyphenethyl)benzyl)pyrrolidin-2-yl)methanol] the value was 2 ± 2%.
Take `CCCCCCCCCCCc1ccc(CN2CCC[C@@H]2COC(C)=O)cc1` [22h, (R)-(1-(4-undecylbenzyl)pyrrolidin-2-yl)methyl acetate]: the inhibition at 0.3 µM is 26 ± 6%.
Turning to `Cc1cc(/C=C/c2ccc(C(C)(C)C)cc2)ccc1CN1CCC[C@@H]1CO` [25a, (R,E)-(1-(4-(4-(tert-butyl)styryl)-2-methylbenzyl)pyrrolidin-2-yl)methanol], the inhibition at 0.3 µM turned out to be 0%.
On the same count and under the same terms, for `CCCCCc1ccc(CCc2ccc(CN3CCC[C@@H]3CO)cc2)cc1` [29c, (R)-(1-(4-(4-pentylphenethyl)benzyl)pyrrolidin-2-yl)methanol] the value was 15 ± 5%; for `CCCc1ccc(CCc2ccc(CN3CCC[C@@H]3CO)cc2)cc1` [29a, (R)-(1-(4-(4-propylphenethyl)benzyl)pyrrolidin-2-yl)methanol], 3 ± 4%; for `Cc1ccc(CCc2ccc(CN3CCC[C@@H]3CO)cc2)cc1` [22f, (R)-(1-(4-(4-methylphenethyl)benzyl)pyrrolidin-2-yl)methanol], 3 ± 5%.
